The source made the active and inactive calls. The calls are words filed in the database; no cut-off is given here.
How the values were obtained:
MV4-11 [1] = assay: cells; details: Homo sapiens, MV4-11, 72 h
Description: Cytotoxicity against human MV4-11 cells assessed as reduction in cell viability after 72 hrs by trypan blue dye exclusion method

[2] = target: Receptor-type tyrosine-protein kinase FLT3 (Homo sapiens) (UniProt P36888); details: MV4-11, dose 20-40 nM, time 3.0 hrs
[3] = target: Proto-oncogene tyrosine-protein kinase receptor Ret (Homo sapiens, UniProt P07949); assay: Inhibition of human RET incubated for 30 mins by Kinobead based assay
Proto-oncogene tyrosine-protein kinase receptor Ret, sequence (P07949 whole entry): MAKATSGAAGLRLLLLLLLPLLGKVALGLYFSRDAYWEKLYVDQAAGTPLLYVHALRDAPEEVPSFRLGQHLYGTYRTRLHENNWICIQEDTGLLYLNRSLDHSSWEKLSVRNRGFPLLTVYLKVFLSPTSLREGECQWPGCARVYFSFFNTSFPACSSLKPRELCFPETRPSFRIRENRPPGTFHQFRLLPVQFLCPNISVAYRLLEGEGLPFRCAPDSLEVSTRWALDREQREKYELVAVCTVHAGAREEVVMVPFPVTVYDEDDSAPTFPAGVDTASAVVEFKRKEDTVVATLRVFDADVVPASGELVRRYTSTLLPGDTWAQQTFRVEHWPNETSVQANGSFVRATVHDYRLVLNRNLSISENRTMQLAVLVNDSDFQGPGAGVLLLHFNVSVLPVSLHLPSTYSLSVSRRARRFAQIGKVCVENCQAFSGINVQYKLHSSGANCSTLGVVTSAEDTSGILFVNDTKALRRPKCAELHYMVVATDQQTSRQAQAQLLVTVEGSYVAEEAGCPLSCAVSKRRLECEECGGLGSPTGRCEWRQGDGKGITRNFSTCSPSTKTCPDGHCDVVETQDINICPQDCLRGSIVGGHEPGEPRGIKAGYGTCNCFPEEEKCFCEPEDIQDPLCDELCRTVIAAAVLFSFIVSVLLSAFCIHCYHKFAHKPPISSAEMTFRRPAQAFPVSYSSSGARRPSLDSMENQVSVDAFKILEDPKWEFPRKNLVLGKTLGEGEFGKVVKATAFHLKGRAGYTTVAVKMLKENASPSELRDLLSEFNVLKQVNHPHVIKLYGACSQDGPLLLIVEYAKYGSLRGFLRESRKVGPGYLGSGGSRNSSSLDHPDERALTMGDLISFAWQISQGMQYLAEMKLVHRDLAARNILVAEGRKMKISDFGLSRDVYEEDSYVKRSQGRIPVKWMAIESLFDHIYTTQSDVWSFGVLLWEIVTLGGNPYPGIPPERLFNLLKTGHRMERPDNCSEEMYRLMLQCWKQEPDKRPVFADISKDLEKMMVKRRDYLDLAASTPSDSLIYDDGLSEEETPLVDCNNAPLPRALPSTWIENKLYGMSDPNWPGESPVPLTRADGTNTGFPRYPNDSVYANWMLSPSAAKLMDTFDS

[4] = target: Mitogen-activated protein kinase kinase kinase kinase 4 (Homo sapiens, UniProt O95819); assay: Inhibition of human MAP4K4 incubated for 30 mins by Kinobead based assay
Mitogen-activated protein kinase kinase kinase kinase 4, sequence (O95819 whole entry): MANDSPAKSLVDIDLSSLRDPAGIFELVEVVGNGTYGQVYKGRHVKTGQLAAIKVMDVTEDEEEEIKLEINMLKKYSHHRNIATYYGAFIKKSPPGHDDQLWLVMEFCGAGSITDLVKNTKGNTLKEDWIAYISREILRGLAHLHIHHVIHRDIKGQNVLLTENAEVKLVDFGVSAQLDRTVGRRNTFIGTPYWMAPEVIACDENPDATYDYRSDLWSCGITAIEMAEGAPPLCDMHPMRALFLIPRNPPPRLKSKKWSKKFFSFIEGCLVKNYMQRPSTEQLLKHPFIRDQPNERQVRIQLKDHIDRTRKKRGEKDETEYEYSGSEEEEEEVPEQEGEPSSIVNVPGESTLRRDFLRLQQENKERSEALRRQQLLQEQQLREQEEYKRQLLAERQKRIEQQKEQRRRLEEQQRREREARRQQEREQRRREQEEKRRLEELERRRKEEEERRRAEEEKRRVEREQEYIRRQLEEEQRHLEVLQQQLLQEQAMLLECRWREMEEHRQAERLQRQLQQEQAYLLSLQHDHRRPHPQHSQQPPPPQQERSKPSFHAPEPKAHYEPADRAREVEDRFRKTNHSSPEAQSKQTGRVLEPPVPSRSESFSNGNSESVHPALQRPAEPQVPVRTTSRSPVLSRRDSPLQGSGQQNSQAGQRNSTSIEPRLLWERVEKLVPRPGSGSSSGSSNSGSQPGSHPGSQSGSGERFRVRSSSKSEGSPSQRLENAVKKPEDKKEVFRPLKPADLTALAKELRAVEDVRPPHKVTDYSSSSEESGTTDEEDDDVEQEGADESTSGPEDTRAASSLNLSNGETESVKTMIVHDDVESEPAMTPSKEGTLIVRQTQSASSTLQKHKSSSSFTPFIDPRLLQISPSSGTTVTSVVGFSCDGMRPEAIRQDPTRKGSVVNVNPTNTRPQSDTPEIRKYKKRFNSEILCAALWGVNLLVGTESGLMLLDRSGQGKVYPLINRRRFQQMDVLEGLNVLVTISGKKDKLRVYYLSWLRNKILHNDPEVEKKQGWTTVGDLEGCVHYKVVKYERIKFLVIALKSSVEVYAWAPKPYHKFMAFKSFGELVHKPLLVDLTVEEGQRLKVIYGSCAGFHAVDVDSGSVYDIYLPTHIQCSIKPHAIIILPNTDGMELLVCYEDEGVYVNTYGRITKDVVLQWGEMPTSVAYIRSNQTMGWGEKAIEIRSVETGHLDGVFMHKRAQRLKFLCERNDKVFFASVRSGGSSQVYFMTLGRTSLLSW

[5] = target: Receptor-type tyrosine-protein kinase FLT3 (Homo sapiens, UniProt P36888); assay: Inhibition of human FLT3 incubated for 30 mins by Kinobead based assay
[6] = target: Receptor-type tyrosine-protein kinase FLT3 (Homo sapiens, UniProt P36888, F691L/ITD)
Description: Binding affinity to human partial length FLT3 ITD/F691L double mutant expressed in mammalian expression system by Kinomescan method

[7] = target: Receptor-type tyrosine-protein kinase FLT3 (Homo sapiens, UniProt P36888, ITD)
[8] = target: Mitogen-activated protein kinase kinase kinase 20 (Homo sapiens, UniProt Q9NYL2); assay: Inhibition of human ZAK incubated for 30 mins by Kinobead based assay
Mitogen-activated protein kinase kinase kinase 20, sequence (Q9NYL2 whole entry, the tested form may be a part): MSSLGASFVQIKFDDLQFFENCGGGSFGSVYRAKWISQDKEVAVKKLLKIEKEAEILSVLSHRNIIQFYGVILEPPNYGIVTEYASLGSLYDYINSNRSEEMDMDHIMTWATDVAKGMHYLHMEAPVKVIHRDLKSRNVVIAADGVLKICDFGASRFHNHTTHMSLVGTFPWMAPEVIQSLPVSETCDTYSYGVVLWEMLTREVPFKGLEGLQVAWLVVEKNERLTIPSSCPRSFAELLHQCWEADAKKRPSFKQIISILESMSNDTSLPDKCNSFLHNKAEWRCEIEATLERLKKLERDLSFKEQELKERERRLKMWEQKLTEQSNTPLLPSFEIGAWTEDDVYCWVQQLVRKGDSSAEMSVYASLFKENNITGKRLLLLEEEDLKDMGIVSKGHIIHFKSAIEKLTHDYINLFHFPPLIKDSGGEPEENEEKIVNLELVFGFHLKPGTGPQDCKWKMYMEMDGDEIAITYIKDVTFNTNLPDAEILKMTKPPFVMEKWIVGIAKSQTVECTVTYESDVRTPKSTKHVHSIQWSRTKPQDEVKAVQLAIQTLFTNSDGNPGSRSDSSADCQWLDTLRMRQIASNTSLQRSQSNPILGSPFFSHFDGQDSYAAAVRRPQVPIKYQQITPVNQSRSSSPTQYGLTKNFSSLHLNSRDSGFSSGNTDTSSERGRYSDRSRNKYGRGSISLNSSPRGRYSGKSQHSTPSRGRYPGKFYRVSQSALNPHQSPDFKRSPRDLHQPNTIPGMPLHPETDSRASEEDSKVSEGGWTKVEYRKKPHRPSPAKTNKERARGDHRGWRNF

[9] = target: Discoidin domain-containing receptor 2 (Homo sapiens, UniProt Q16832); assay: Inhibition of human DDR2 incubated for 30 mins by Kinobead based assay
Discoidin domain-containing receptor 2, sequence (Q16832 whole entry, the tested form may be a part): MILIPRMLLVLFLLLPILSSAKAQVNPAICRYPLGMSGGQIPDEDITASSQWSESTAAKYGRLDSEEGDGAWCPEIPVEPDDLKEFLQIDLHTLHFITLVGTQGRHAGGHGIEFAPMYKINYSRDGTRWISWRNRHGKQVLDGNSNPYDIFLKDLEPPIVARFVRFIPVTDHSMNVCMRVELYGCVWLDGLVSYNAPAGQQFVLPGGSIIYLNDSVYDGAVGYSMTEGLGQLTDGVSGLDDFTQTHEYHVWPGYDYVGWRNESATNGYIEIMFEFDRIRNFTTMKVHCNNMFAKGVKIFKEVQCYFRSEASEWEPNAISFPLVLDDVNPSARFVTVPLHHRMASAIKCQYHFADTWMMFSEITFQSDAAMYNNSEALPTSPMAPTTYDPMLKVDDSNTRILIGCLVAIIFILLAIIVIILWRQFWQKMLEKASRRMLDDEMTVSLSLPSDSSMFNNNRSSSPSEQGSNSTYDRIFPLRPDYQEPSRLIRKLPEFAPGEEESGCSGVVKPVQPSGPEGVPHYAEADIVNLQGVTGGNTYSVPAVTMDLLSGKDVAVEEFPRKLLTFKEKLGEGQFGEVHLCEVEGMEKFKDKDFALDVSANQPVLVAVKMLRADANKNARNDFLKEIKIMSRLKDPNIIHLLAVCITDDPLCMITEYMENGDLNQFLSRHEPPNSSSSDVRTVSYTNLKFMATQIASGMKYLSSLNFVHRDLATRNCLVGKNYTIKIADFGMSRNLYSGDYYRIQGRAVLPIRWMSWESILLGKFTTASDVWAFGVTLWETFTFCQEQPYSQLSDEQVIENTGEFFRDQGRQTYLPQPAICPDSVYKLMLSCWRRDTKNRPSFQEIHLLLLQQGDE

[10] = target: Cyclin-dependent kinase 16 (Homo sapiens, UniProt Q00536); assay: Inhibition of human CDK16 incubated for 30 mins by Kinobead based assay
Ephrin type-A receptor 7 = Ephrin type-A receptor 7 (Homo sapiens, UniProt Q15375); assay: Inhibition of human EPHA7 incubated for 30 mins by Kinobead based assay
Ephrin type-A receptor 7, sequence (Q15375 whole entry): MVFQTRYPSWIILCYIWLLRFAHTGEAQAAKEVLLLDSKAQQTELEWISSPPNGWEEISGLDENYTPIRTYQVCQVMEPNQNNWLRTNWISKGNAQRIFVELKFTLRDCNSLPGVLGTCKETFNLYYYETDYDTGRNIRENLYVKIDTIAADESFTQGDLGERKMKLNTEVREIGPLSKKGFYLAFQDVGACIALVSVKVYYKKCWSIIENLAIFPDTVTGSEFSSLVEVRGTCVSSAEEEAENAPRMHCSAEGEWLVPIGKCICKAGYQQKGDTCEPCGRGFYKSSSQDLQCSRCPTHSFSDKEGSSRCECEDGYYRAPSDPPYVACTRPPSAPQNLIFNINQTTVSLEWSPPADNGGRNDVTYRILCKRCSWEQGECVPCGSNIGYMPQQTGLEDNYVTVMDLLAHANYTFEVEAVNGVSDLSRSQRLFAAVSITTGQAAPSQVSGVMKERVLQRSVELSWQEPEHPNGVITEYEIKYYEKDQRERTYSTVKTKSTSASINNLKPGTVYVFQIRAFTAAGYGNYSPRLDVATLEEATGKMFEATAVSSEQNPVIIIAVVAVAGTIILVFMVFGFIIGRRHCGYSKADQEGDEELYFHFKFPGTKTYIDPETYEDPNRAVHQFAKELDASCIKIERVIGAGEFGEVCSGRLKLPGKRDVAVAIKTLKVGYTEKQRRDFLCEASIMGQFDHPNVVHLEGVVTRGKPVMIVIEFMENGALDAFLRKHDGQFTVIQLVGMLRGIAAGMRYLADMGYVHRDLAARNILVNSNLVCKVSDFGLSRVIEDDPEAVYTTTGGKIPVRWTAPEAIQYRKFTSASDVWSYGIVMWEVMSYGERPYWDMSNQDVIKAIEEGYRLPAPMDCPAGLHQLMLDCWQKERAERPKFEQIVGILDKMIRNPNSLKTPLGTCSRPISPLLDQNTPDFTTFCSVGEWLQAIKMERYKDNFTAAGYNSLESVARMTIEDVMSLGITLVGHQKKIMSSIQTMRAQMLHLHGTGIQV

[11] = target: Receptor-type tyrosine-protein kinase FLT3 (Homo sapiens, UniProt P36888, D835Y)
ML-2 = assay: cells; details: Homo sapiens, ML-2, 96 h
Description: Cytotoxicity against human ML-2 cells assessed as reduction in cell viability after 4 days by CellTiter-Blue assay

THP-1 = assay: cells; details: Homo sapiens, THP-1, 96 h
Description: Cytotoxicity against human THP-1 cells assessed as reduction in cell viability after 4 days by CellTiter-Blue assay

MONO-MAC-6 = assay: cells; details: Homo sapiens, MONO-MAC-6, 96 h
Description: Cytotoxicity against human MONO-MAC-6 cells assessed as reduction in cell viability after 4 days by CellTiter-Blue assay

NOMO-1 = assay: cells; details: Homo sapiens, NOMO-1, 96 h
Description: Cytotoxicity against human NOMO-1 cells assessed as reduction in cell viability after 4 days by CellTiter-Blue assay

MOLM-13 = assay: cells; details: Homo sapiens, MOLM-13, 96 h
Description: Cytotoxicity against human MOLM-13 cells assessed as reduction in cell viability after 4 days by CellTiter-Blue assay

TF-1 = assay: cells; details: Homo sapiens, TF-1, 96 h
Description: Cytotoxicity against human TF-1 cells assessed as reduction in cell viability after 4 days by CellTiter-Blue assay

cells [12] = details: Homo sapiens, MOLP-2, 96 h
Description: Cytotoxicity against human MOLP-2 cells assessed as reduction in cell viability after 4 days by CellTiter-Blue assay

OPM-2 = assay: cells; details: Homo sapiens, OPM-2, 96 h
Description: Cytotoxicity against human OPM-2 cells assessed as reduction in cell viability after 4 days by CellTiter-Blue assay

EOL1 = assay: cells; details: Homo sapiens, EOL1, 96 h
Description: Cytotoxicity against human EOL1 cells assessed as reduction in cell viability after 4 days by CellTiter-Blue assay

NB-4 = assay: cells; details: Homo sapiens, NB-4, 96 h
Description: Cytotoxicity against human NB-4 cells assessed as reduction in cell viability after 4 days by CellTiter-Blue assay

OCI-AML2 = assay: cells; details: Homo sapiens, OCI-AML2, 96 h
Description: Cytotoxicity against human OCI-AML2 cells assessed as reduction in cell viability after 4 days by CellTiter-Blue assay

physchem = details: water
Description: Solubility of compound in water at 10 mg after 3 hrs by UV-spectra analysis

HL-60 = assay: cells; details: Homo sapiens, HL-60, 96 h
Description: Cytotoxicity against human HL-60 cells assessed as reduction in cell viability after 4 days by CellTiter-Blue assay

cells [13] = details: Homo sapiens, ME-1, 96 h
Description: Cytotoxicity against human ME-1 cells assessed as reduction in cell viability after 4 days by CellTiter-Blue assay

MV4-11 [14] = assay: cells; details: Homo sapiens, MV4-11, 96 h
Description: Cytotoxicity against human MV4-11 cells assessed as reduction in cell viability after 4 days by CellTiter-Blue assay

KG-1a = assay: cells; details: Homo sapiens, 96 h
Description: Cytotoxicity against human KG-1a cells assessed as reduction in cell viability after 4 days by CellTiter-Blue assay

[15] = Toxicity in NMRI nu/nu mouse assessed as lethality at 75 mg/kg/day, po for 3 days; format: organism-based; details: in vivo, 72 h, time 3 day
L-363 = assay: cells; details: Homo sapiens, L-363, 96 h
Description: Cytotoxicity against human L-363 cells assessed as reduction in cell viability after 4 days by CellTiter-Blue assay

KMOE-2 = assay: cells; details: Homo sapiens, KMOE-2, 96 h
Description: Cytotoxicity against human KMOE-2 cells assessed as reduction in cell viability after 4 days by CellTiter-Blue assay

cells [16] = details: Homo sapiens, PL-21, 96 h
Description: Cytotoxicity against human PL21 cells assessed as reduction in cell viability after 4 days by CellTiter-Blue assay

RPMI-8226 = assay: cells; details: Homo sapiens, RPMI-8226, 96 h
Description: Cytotoxicity against human RPMI-8226 cells assessed as reduction in cell viability after 4 days by CellTiter-Blue assay

cells [17] = details: Homo sapiens, OCI-M1, 96 h
Description: Cytotoxicity against human OCI-M1 cells assessed as reduction in cell viability after 4 days by CellTiter-Blue assay

cells [18] = details: Homo sapiens, Mono-Mac-1, 96 h
Description: Cytotoxicity against human MONO-MAC-1 cells assessed as reduction in cell viability after 4 days by CellTiter-Blue assay

[19] = Toxicity in NMRI nu/nu mouse assessed as weight gain at 75 mg/kg/day, po for 3 days relative to control; format: organism-based; details: in vivo, 72 h, time 3 day
SKM-1 = assay: cells; details: Homo sapiens, SKM-1, 96 h
Description: Cytotoxicity against human SKM-1 cells assessed as reduction in cell viability after 4 days by CellTiter-Blue assay

IM-9 = assay: cells; details: Homo sapiens, IM-9, 96 h
Description: Cytotoxicity against human IM-9 cells assessed as reduction in cell viability after 4 days by CellTiter-Blue assay

U-266 = assay: cells; details: Homo sapiens, U-266, 96 h
Description: Cytotoxicity against human U-266 cells assessed as reduction in cell viability after 4 days by CellTiter-Blue assay

KG-1 = assay: cells; details: Homo sapiens, KG-1, 96 h
Description: Cytotoxicity against human KG-1 cells assessed as reduction in cell viability after 4 days by CellTiter-Blue assay

OCI-AML-5 = assay: cells; details: Homo sapiens, OCI-AML-5, 96 h
Description: Cytotoxicity against human OCI-AML5 cells assessed as reduction in cell viability after 4 days by CellTiter-Blue assay

SMILES: Cc1cccc2[nH]c(C(=O)c3cc4c(NC(=O)Nc5cc(C(C)(C)C)on5)cccc4[nH]3)cc12
- IC50 (MV4-11 [1]): > 100 nM

SMILES: Cc1cccc2[nH]c(C(=O)c3cc4cccc(NC(=O)Nc5cc(C(C)(C)C)on5)c4[nH]3)cc12
- IC50 (MV4-11 [1]): > 100 nM

SMILES: Cc1cc(NC(=O)Nc2ccc3[nH]c(C(=O)c4cc5cc(O)ccc5[nH]4)cc3c2)no1
- IC50 (MV4-11 [1]): > 100 nM

SMILES: CC(C)(C)c1cc(NC(=O)Nc2ccc3[nH]c(C(=O)c4cc5cc(O)ccc5o4)cc3c2)no1
- IC50 (MV4-11 [1]): 0.78 nM

SMILES: Cc1cccc2[nH]c(C(=O)c3cc4ccc(NC(=O)Nc5cc(C(C)(C)C)on5)cc4[nH]3)cc12
- IC50 (MV4-11 [1]): 23.5 nM

SMILES: CC(C)(C)c1nnc(NC(=O)Nc2ccc3[nH]c(C(=O)c4cc5cc(O)ccc5[nH]4)cc3c2)s1
- IC50 (MV4-11 [1]): 14.4 nM

SMILES: CC(C)(C)c1cc(NC(=O)Nc2ccc3oc(C(=O)c4cc5cc(O)ccc5[nH]4)cc3c2)no1
- inhibition [2]: Active
- EC50 [3]: 2490 nM
- EC50 [4]: 3860 nM
- EC50 [5]: 1770 nM
- Kd [6]: 115 nM
- IC50 [7]: 2.3 nM
- EC50 [8]: 3260 nM
- EC50 [9]: 2490 nM
- EC50 [10]: 1770 nM
- EC50 (Ephrin type-A receptor 7): 3260 nM
- IC50 [11]: 4.84 nM

SMILES: CC(C)(C)c1cc(NC(=O)Nc2cc3cc(C(=O)c4cc5cc(O)ccc5o4)[nH]c3cn2)no1
- IC50 (MV4-11 [1]): 29.8 nM

SMILES: CC(C)(C)c1cc(NC(=O)Nc2ccc3[nH]c(C(=O)c4cc5cc(O)ccc5[nH]4)cc3c2)no1
- IC50 (MV4-11 [1]): 1.7 nM

SMILES: Cc1cccc2[nH]c(C(=O)c3cc4cc(NC(=O)Nc5cc(C(C)(C)C)on5)ccc4[nH]3)cc12
- IC50 (MV4-11 [1]): 13.5 nM

SMILES: CC(C)(C)c1cc(NC(=O)Nc2cnc3[nH]c(C(=O)c4cc5cc(O)ccc5[nH]4)cc3c2)no1
- IC50 (MV4-11 [1]): > 100 nM

SMILES: CC(C)(C)c1cc(NC(=O)Nc2ccc3oc(C(=O)c4cc5cc(OC(=O)N6CCC(N7CCCCC7)CC6)ccc5[nH]4)cc3c2)no1.Cl
- IC50 (ML-2): 1.49 nM
- IC50 (THP-1): 2.12 nM
- IC50 (MONO-MAC-6): 0.011 nM
- IC50 (NOMO-1): 1.21 nM
- IC50 (MOLM-13): 0.002 nM
- IC50 (TF-1): 5.31 nM
- IC50 (cells [12]): 2.27 nM
- IC50 (OPM-2): 1.33 nM
- IC50 (EOL1): 0.0001 nM
- IC50 (NB-4): 3.6 nM
- IC50 (OCI-AML2): 1.39 nM
- solubility at 3 h (physchem): 230 µg/mL
- IC50 (HL-60): 2.35 nM
- IC50 (cells [13]): 2.36 nM
- IC50 (MV4-11 [14]): 0.0009 nM
- IC50 (KG-1a): 0.613 nM
- Activity [15]: Non-Toxic
- IC50 (L-363): 1.61 nM
- IC50 (KMOE-2): 5.33 nM
- IC50 (cells [16]): 1.3 nM
- IC50 (RPMI-8226): 2.37 nM
- IC50 (cells [17]): 0.695 nM
- IC50 (cells [18]): 0.001 nM
- Activity [19]: 3%
- IC50 (SKM-1): 1.35 nM
- IC50 (IM-9): 2.25 nM
- IC50 (U-266): 1.37 nM
- IC50 (KG-1): 0.556 nM
- IC50 (OCI-AML-5): 0.159 nM
